SMILES strings stand for the structures.

Experimental findings from US20100099756A1, “USES OF INCENSOLE, INCENSOLE ACETATE AND DERIVATIVES THEREOF” (YISSUM RESEARCH DEVELOPMENT COMPANY OF THE HEBREW …, priority 2006, published 2010) are described below.

What all share (type): cell-based
Assay [1] deals with T1, mouse TRPV3-YFP (Mus musculus, UniProt Q8K424).
T1 construct: expressed in transfected cells
T1 sequence (Q8K424 1-791): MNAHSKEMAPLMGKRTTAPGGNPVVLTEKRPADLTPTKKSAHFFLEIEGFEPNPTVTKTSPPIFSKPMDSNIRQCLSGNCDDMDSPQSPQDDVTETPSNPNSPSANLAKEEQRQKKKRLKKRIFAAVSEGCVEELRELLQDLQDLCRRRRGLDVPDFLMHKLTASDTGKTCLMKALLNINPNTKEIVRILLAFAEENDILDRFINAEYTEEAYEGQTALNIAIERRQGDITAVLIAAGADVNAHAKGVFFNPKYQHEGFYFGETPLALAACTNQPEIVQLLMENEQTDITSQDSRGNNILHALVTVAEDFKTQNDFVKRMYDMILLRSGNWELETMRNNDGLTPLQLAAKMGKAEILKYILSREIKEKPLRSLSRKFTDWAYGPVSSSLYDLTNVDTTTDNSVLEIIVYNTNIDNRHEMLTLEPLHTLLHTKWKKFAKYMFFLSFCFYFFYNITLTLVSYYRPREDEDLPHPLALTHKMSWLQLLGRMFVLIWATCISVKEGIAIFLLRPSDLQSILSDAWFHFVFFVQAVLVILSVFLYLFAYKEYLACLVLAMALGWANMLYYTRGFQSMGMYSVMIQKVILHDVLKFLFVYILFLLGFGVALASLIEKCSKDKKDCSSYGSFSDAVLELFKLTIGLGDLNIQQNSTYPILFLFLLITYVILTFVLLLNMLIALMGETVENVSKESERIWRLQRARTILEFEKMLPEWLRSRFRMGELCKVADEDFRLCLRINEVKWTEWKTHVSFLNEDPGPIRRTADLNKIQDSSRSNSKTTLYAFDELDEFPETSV
The assay can be described thus: Calcium imaging of HEK293 cells expressing mouse TRPV3-YFP. As to conditions: IA 100 μM; 2-APB positive control. How it is done: (§1) All error bars indicate SEM; p values in all subfigures but c represent analysis with one-way ANOVA Bonferroni's post hoc.
TRPV3-YFP [O'dell, D. K., Rimmerman, N., Pickens, S. R. & Walker J. M. Fatty acyl amides of endogenous tetrahydroisoquinolines are active at the recombinant human TRPV1 receptor. […] Med. Chem. 15, 6164-6169 (2007)], TRPV4 and mock-transfected cell lines were cultured in DMEM 1× with L-glutamine (Mediatech, Inc. Herndon, Va.), containing 1% penicillin-streptomycin (Invitrogen, Carlsbad, Calif.) and 10% foetal bovine serum.
(§2) Calcium imaging of HEK 293 cells. TRPV1, TRPV3, and TRPV4 expressing HEK293 cells were plated 24-48 h before imaging in 96 well plates, loaded with 3 μM Fura-2 AM and imaged as previously described [O'dell, D. K., Rimmerman, N., Pickens, S. R. & Walker J. M. Fatty acyl amides of endogenous tetrahydroisoquinolines are active at the recombinant human TRPV1 receptor. […] Med. Chem. 15, 6164-6169 (2007)].
(§3) For single cell calcium imaging, HEK293-rat TRPV2 and HEK293-mouse TRPV3-YFP expressing cells were plated on collagen-coated glass cover slips. Cells were loaded for 60 min with 3 μM Fura-2 AM.
Data analysis of calcium imaging data. Analysis of calcium imaging data was done using a non-linear regression curve fit (Graphpad 4 Prism, San Diego, Calif.). t tests and one way ANOVA were calculated using SPSS (Chicago, Ill.). In the keratinocyte experiments, drug-induced response for each cell was taken as the maximal post-drug measurements over time minus the average of the last 5 pre-drug measurements. Averaged drug responses over 30 randomly selected cells per coverslip were analyzed with two-tailed unpaired t tests.

The target of another assay is T2, rat-TRPV2 (Rattus norvegicus, UniProt Q9WUD2).
T2 construct: expressed in transfected cells; host or cells: HEK293 (transient, lipofectamine)
The assay can be described thus: Calcium imaging of HEK293 cells transiently transfected with rat-TRPV2. Particulars: IA 100 μM.
Excerpt: as §1
(§4) HEK293 cells were transiently transfected with a rat TRPV2 plasmid using lipofectamine reagent (Invitrogen, Carlsbad, Calif.) according to manufacturer's protocol. They were then maintained in Dulbecco's modified Eagle Medium/10% fetal calf serum supplemented with Penicillin, Streptomycin, and L-glutamine. Primary keratinocytes from TRPV3-deficient and TRPV3+/+ mouse pups (day 1-4) were harvested and cultured as described previously [Chung, M. K., Lee, H., Mizuno, A., Suzuki, M. & Caterina, M. J. TRPV3 and TRPV4 mediate warmth-evoked currents in primary mouse keratinocytes. J. Biol. Chem. 279, 21569-21575 (2004)].
as §3

Assay [2] addresses T1, mouse TRPV3-YFP. The experiment in a line: Whole-cell voltage-clamp, TRPV3-YFP expressing HEK293 cells. As to conditions: IA 200 μM; 2-APB 100 μM; charge −85 to −45 mV. As for the experimental part:
(§5) Electrophysiological recording. Currents were recorded using whole-cell voltage-clamp. Pipettes were pulled from microcapillary glass (A-M Systems). A coverslip containing cells was transferred to a 300 μL chamber that was constantly perfused (1-2 mL/min) with external solution. Voltage protocols were generated and data were digitized and recorded using Pulse (HEKA Elektronik) software in conjunction with an Axopatch 200A amplifier (Axon Instruments), and the data analyzed using an in-house Visual Basic (Microsoft) analysis program.
(§6) The external solution contained (in mM): 120 NaCl, 5 KCl, 1 MgCl2, 2 CaCl2, 10 Glucose and 20 HEPES, pH 7.4 with NaOH. The measured charge (pC) was defined as the charge elicited between -85 and -45 mV by a ramping voltage stimulus (−85 mV to +35 mV, 0.54 mV/msec; holding potential -55 mV). Currents were sampled at 5 kHz. Experimental and control cells were alternated whenever possible. Control values were obtained from adjacent cells with no detectable YFP fluorescence, presumed to be non-TRPV3-expressing.

Assay [3] concerns mouse TRPV3-YFP. The description is as above. As to conditions: IA 200 μM; 2-APB 100 μM; cells not expressing TRPV3. As for the experimental part: as §5, §6
The next assay deals with T3, rat TRPV4 (Rattus norvegicus, UniProt Q9ERZ8).
T3 construct: expressed in transfected cells; host or cells: HEK293 cell line
The experiment in a line: Calcium imaging of TRPV4 transfected HEK293 cells. Particulars: IA 100 μM, compared to vehicle. How it is done:
as §1
TRPV3-YFP [O'dell, D. K., Rimmerman, N., Pickens, S. R. & Walker J. M. Fatty acyl amides of endogenous tetrahydroisoquinolines are active at the recombinant human TRPV1 receptor. Bioorg. Med. Chem. 15, 6164-6169 (2007)], TRPV4 and mock-transfected cell lines were cultured in DMEM 1× with L-glutamine (Mediatech, Inc. Herndon, Va.), containing 1% penicillin-streptomycin (Invitrogen, Carlsbad, Calif.) and 10% foetal bovine serum.
Calcium imaging of HEK 293 cells. TRPV1, TRPV3, and TRPV4 expressing HEK293 cells were plated 24-48 h before imaging in 96 well plates, loaded with 3 μM Fura-2 AM and imaged as previously described [O'dell, D. K., Rimmerman, N., Pickens, S. R. & Walker J. M. Fatty acyl amides of endogenous tetrahydroisoquinolines are active at the recombinant human TRPV1 receptor. Bioorg. Med. Chem. 15, 6164-6169 (2007)].

The next assay addresses T4, TRPV3 (Mus musculus, UniProt Q8K424).
T4 sequence (Q8K424 1-791): T1 sequence (Q8K424 1-791)
The assay can be described thus: Calcium imaging of TRPV3+/+ and TRPV3−/− primary keratinocytes. Details: endogenous in cells; host or cells: primary keratinocytes from TRPV3+/+ mouse pups (day 1-4); TRPV3-/- cells as control. Particulars: IA 500 μM; camphor 10 mM.
Excerpt: as §4
Calcium imaging of TRPV3^+/+ and TRPV3^−/− keratinocytes. Primary keratinocytes from TRPV3-deficient and WT mouse pups (day 1-4) were harvested and cultured as described [Chung, M. K., Lee, H., Mizuno, A., Suzuki, M. & Caterina, M. J. TRPV3 and TRPV4 mediate warmth-evoked currents in primary mouse keratinocytes. J. Biol. Chem. 279, 21569-21575 (2004)].
Cells were plated on glass coverslips (10^5/cm^2) and incubated for 48-60 h, then loaded with fura-2 AM (20 μM, 0.04% pleuronic acid, 32° C. for 1 h) in imaging buffer containing (in mM): 130 NaCl, 2.5 CaCl2, 0.6 MgCl2, 10 HEPES, 1.2 NaHCO3, 10 glucose, pH 7.45. Ratiometric Ca^2+ imaging was performed as previously described [O'dell, D. K., Rimmerman, N., Pickens, S. R. & Walker J. M. Fatty acyl amides of endogenous tetrahydroisoquinolines are active at the recombinant human TRPV1 receptor. Bioorg. Med. Chem. 15, 6164-6169 (2007)]. Drug was added to the bath following a period of baseline recording. Calcium measurements were made from 30 randomly selected cells per coverslip.
Data analysis of calcium imaging data. Analysis of calcium imaging data was done using a non-linear regression curve fit (Graphpad 4 Prism, San Diego, Calif.). t tests and one way ANOVA were calculated using SPSS (Chicago, Ill.). […] Averaged drug responses over 30 randomly selected cells per coverslip were analyzed with two-tailed unpaired t tests.

In the next assay the target is TRPV1 (Homo sapiens, UniProt Q8NER1). The assay can be described thus: Calcium imaging of TRPV1-transfected HEK293 cells. As to conditions: IA 100 μM, compared to vehicle. As for the experimental part: as §1
Human HEK 293 cells stably expressing TRPV1 were a kind gift from Merck Research Laboratories (Whitehouse Station, N.J.). Cells were cultured in minimal essential medium, Eagle, modified with non-essential amino acids, 1 mM sodium pyruvate, 2 mM L-glutamine and 1.5 g/L sodium bicarbonate (ATCC, Mabassas, Va.), containing 1% Penicillin-streptomycin, and 10% foetal bovine serum. Cells were passaged three times a week using Trypsin-EDTA 1× (Invitrogen, Carlsbad, Calif.) and grown under 5% CO2 at 37° C.
as §2

A further assay relates to IκBα degradation. The experiment in a line: IκBα degradation in TNFα-stimulated HeLa cells (Western blot). Particulars: HeLa cells pre-incubated 2 hrs, then TNFα 20 ng/ml for 20 minutes. How it is done: HeLa cells were pre-incubated with IA (FIG. 1A) or IN (FIG. 1B) at the indicated concentrations for 2 hrs prior to 20 minutes exposure to TNFα (20 ng/ml). At least three more experiments were repeated with highest indicated dose, resulting similarly.
IκBα Degradation. HeLa cells were pre-incubated with IA (50 μg/ml, dissolved in ethanol) for 2 hrs, and then stimulated for 20 minutes with TNFα (20 ng/ml, Emeryville, Calif., USA). After removing the slides from plates for immonostaining (see below), proteins were extracted from remaining cells in the plates. Proteins were extracted from cells in NP-40 lysis buffer. Total protein concentration was determined using the Bradford method. Lysates were then analyzed either by Western blotting (WB).
Western Blot (WB). Following separation by SDS-PAGE, proteins were blotted to a polyvinylidene difluoride (PVDF) membrane (Millipore). The membrane was blocked in 5% (w/v) milk powder and then incubated in TBST containing the primary antibody and 2% (w/v) milk powder. All phospho-specific antibodies were purchased from Cell signaling Inc. αIκBa, αp65 and αCOX2 antibodies from Santa Cruz Inc. (California, USA). After binding of an appropriate secondary antibody coupled to horseradish peroxidase, proteins were visualized by enhanced chemiluminiscence according to the instructions of the manufacturer (Amersham Lifescience).

T2 sequence (Q9WUD2 whole entry): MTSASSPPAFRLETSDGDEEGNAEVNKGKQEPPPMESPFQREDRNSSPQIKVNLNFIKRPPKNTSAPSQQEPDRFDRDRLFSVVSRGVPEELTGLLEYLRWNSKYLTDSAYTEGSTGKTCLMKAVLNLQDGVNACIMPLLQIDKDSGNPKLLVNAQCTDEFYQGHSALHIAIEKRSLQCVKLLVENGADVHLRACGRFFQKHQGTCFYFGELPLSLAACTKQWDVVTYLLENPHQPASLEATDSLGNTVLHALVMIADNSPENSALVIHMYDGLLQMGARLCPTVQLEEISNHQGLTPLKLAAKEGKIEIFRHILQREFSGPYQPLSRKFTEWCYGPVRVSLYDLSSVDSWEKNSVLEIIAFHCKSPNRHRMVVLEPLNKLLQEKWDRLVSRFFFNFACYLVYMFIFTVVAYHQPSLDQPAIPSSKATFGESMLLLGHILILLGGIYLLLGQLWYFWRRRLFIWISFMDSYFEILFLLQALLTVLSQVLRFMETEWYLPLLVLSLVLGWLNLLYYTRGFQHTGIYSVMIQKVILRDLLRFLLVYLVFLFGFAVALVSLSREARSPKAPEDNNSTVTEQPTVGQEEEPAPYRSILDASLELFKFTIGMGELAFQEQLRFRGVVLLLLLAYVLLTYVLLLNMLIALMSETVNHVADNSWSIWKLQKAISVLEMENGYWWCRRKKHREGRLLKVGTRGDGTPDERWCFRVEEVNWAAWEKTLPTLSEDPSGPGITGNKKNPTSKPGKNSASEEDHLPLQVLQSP
T3 sequence (Q9ERZ8 whole entry): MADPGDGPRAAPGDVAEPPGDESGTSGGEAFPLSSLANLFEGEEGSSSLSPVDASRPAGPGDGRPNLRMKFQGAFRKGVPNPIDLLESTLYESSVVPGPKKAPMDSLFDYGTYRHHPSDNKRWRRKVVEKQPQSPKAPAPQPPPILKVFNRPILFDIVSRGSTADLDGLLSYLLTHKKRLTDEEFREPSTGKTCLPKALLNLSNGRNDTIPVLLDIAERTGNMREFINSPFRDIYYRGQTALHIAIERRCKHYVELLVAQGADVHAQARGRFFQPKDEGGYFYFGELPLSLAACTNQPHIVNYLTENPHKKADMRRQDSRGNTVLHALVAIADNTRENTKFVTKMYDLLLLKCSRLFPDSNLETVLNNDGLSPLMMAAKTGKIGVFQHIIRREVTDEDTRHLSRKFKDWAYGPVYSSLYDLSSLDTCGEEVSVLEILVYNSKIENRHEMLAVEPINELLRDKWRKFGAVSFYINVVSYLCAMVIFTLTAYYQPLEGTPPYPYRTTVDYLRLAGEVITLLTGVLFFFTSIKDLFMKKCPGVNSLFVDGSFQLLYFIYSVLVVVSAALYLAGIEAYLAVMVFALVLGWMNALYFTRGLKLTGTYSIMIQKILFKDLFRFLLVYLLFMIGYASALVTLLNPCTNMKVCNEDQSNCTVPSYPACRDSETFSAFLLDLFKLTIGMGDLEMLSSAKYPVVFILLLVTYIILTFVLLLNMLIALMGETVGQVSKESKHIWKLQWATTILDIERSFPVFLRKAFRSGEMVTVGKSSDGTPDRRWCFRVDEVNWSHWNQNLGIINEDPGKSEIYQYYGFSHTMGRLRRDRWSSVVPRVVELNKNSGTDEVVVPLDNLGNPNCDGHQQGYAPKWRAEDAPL
Sequence of TRPV1 (Q8NER1 whole entry): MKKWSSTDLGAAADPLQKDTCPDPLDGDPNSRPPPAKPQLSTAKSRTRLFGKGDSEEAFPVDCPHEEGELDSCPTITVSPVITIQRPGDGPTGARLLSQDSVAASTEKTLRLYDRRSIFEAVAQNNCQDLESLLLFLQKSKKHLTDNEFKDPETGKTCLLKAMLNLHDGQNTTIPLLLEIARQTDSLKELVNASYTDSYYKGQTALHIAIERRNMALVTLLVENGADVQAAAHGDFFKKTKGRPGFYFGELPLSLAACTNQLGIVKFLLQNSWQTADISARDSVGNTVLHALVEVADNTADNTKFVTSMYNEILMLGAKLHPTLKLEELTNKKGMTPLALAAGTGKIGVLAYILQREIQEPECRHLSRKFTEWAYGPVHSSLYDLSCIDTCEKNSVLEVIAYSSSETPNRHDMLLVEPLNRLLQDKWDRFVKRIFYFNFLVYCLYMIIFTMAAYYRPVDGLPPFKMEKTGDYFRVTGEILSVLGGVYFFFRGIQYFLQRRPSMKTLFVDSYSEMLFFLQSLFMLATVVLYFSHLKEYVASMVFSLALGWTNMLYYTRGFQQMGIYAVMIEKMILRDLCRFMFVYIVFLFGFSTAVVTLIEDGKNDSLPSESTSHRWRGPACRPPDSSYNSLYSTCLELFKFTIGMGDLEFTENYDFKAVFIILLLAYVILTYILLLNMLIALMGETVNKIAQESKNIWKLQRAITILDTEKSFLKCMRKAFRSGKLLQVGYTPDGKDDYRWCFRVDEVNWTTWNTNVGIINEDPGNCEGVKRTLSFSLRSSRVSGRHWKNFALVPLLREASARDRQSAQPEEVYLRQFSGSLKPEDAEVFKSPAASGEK

On to `NCCOB(c1ccccc1)c1ccccc1` [2-APB, 2-aminoethyl diphenylborinate, reference compound], for which the “calcium influx vs vehicle” value on mouse TRPV3-YFP [1] is “evoked robust calcium increases”. On rat-TRPV2, the “calcium influx in rat-TRPV2 transfected HEK293 cells” value was “robustly increased calcium”. Further, at mouse TRPV3-YFP [2], the “current activation in TRPV3(+) HEK293 cells” value was “activates currents”. Moreover, in the assay on mouse TRPV3-YFP [3], the “current activation in TRPV3(−) control cells” value is “not in TRPV3(−) cells”.

As to `CCCCCCCCCC(=O)O[C@@H]1[C@@H](C)[C@@]2(O)[C@@H](C=C(CO)C[C@@]3(O)C(=O)C(C)=C[C@@H]23)[C@@H]2C(C)(C)[C@]12OC(=O)CCCCCCCCC` [4αPDD, reference compound], the “calcium influx in TRPV4 transfected HEK293 cells” value on rat TRPV4 is given as “robust calcium increase”.

For the compound `CC12CCC(CC1=O)C2(C)C` (centres unmarked) [Camphor, camphor, reference compound], at TRPV3, the “calcium influx in primary keratinocytes from WT mice” value is “showed a similar effect”.

As for `COc1cc(CNC(=O)CCCC/C=C/C(C)C)ccc1O` [Capsaicin, reference compound], the “calcium influx in TRPV1-transfected HEK293 cells” value at TRPV1 was “robust calcium increase”.

Turning to `C/C1=C\CC2(C(C)C)CCC(C)(O2)C(O)CC/C(C)=C/CC1` (centres unmarked) [IN, incensole], the IκBα degradation entry in the assay on IκBα degradation is “inhibited IκBα degradation in a dose dependent manner”.
